A word on the melting point: it is the temperature, or range, at which the solid turns liquid. What is called IC50 is the point on the concentration scale where inhibition reaches its midpoint. Higher therefore signals lower potency.

Structures can show the parent of a compound that is named as a salt.

From PMC6151508, “Development of Novel Nrf2/ARE Inducers Bearing Pyrazino[2,1-a]isoquinolin Scaffold with Potent In Vitro Efficacy and Enhanced Physicochemical Properties” (Molecules : A Journal of Synthetic Chemistry and Natural …, 2017) come the findings set out here.

The test system of data set [1] is antioxidant response element (ARE). Briefly: ARE luciferase reporter assay in HepG2-ARE-C8 cells. The settings on record: HepG2-ARE-C8, 12 h of treatment, mean ± SD n = 3, read-out: ARE Inductivity in Luciferase Reporter Assay (induction fold). The format is cell-based. The procedure: (§1) All the derivatives were evaluated for their ability to induce ARE in HepG2-ARE-C8 cell (HepG2 cells stably transfected with a luciferase reporter) by ARE luciferase reporter assay, and they were compared to the lead compound 2. At the same time, cytotoxicity studies were performed by the MTT assay against the HCT116 cells. The results of cytotoxic activity in vitro were expressed as the IC50 [18]. Because those compounds were designed for chemoprevention, they should not be cytotoxic.
HepG2-ARE-C8 cells (4 × 10^4 cells/well) were incubated overnight in 96-well plates, and then treated with different concentrations of test compounds. tBHQ was used as a positive control, DMSO was used as a negative control, and the luciferase cell culture lysis reagent was used as a blank. The medium was removed after 12 h treatment. Then, the cells were harvested in the luciferase cell culture lysis reagent together with 100 μL of cold PBS. Then, centrifuging the solution and 20 μL of the supernatant was used for determining the luciferase activity. The luciferase activity was measured by a Luminoskan Ascent (Thermo Scientific, Waltham, MA, USA). The data were obtained in triplicate and expressed as fold induction over the control. Induction fold = (RLUtest − RLUblank)/(RLUDMSOcontrol − RLUblank). RLU = relative light unit l.
Background: A reporter such as luciferase makes a cellular process visible.

The nature of data set [2]: MTT cell viability (cytotoxicity) assay. Format: cell-based. The conditions noted are these: human, HCT116 cells. The protocol:
as §1
Cell viabilities were determined by using 3-[4,5-dimethylthiazol-2-yl]-2,5-diphenyltetrazolium bromide (MTT) assay. MTT was dissolved in (phosphate buffered solution) PBS to a concentration of 5 mg/mL. HCT116 cells (8 × 10^3 cells/well) were plated in 96-well plates and incubated overnight. Different concentrations of test compounds were added to each cell for 24 h at 37 °C, and the 20 μL MTT solution was added and incubated for an additional 4 h. Then, 100 μL of DMSO was added to dissolve formazan precipitate after the solution was removed. The OD value was determined at 570 nm by Elx800 absorbance microplate reader (BioTek, Winooski, VT, USA). IC50 value (concentration at which cell survival equals 50% of control) = […].

`Nc1cccc(C(=O)C=C2NCC3c4ccccc4CCN3C2=O)c1` (centres unmarked) [Compound 1a, 3-(2-(3-aminophenyl)-2-oxoethylidene)-1,2,3,6,7,11b-hexahydro-4H-pyrazino[2,1-a]isoquinolin-4-one] yielded a melting point of 206 to 208 °C. Besides, in data set [1], the fold induction at 0.1 µM worked out at 0.56 ± 0.28, the fold induction at 1 µM was found to be 1.66 ± 0.05, the fold induction at 5 µM is 2.4 ± 1.18 and the fold induction at 10 µM amounted to 5.64 ± 2.06. Also, in data set [1], the fold induction at 50 µM was determined as 7.53 ± 1.28 and the fold induction at 100 µM worked out at 7.62 ± 2.79. For the same compound, the concentration for half-maximal inhibition (IC50) at 24 h in data set [2] was > 300 µM.

As to `Nc1ccc(C(=O)C=C2NCC3c4ccccc4CCN3C2=O)cc1` (centres unmarked) [Compound 1b, 3-(2-(4-aminophenyl)-2-oxoethylidene)-1,2,3,6,7,11b-hexahydro-4H-pyrazino[2,1-a]isoquinolin-4-one], the melting point was 238 to 240 °C. Moreover, in data set [1], the fold induction at 0.1 µM came to 1.26 ± 0.28, the fold induction at 1 µM was determined as 1.26 ± 0.73, the fold induction at 5 µM stood at 2.78 ± 0.29 and the fold induction at 10 µM is 3.45 ± 0.03. Moreover, in data set [1], the fold induction at 50 µM was 2.75 ± 0.68 and the fold induction at 100 µM worked out at 2.68 ± 0.31. In addition, in data set [2], the IC50 at 24 h is > 300 µM.

The compound `CC(=O)Nc1cccc(C(=O)C=C2NCC3c4ccccc4CCN3C2=O)c1` (centres unmarked) [Compound 1c, N-(3-(2-(4-oxo-1,6,7,11b-tetrahydro-2H-pyrazino[2,1-a]isoquinolin-3(4H)-ylidene)acetyl)phenyl)acetamide] yielded a melting point of 247 to 249 °C. In addition, in data set [1], the fold induction at 0.1 µM turned out to be 0.8 ± 0.19, the fold induction at 1 µM was found to be 0.78 ± 0.36, the fold induction at 5 µM amounted to 2.3 ± 0.39 and the fold induction at 10 µM amounted to 3.05 ± 0.53. For the same compound, in data set [1], the fold induction at 50 µM came to 3.09 ± 0.09 and the fold induction at 100 µM came to 3.41 ± 0.65. In data set [2], the IC50 at 24 h was > 300 µM.

Compound `CC(=O)Nc1ccc(C(=O)C=C2NCC3c4ccccc4CCN3C2=O)cc1` (centres unmarked) [Compound 1d, N-(4-(2-(4-oxo-1,6,7,11b-tetrahydro-2H-pyrazino[2,1-a]isoquinolin-3(4H)-ylidene)acetyl)phenyl)acetamide] had a melting point of 279 to 281 °C. In addition, in data set [1], the fold induction at 0.1 µM turned out to be 1.24 ± 0.23, the fold induction at 1 µM is 1.09 ± 0.72, the fold induction at 5 µM came to 1.49 ± 0.16 and the fold induction at 10 µM came to 2.94 ± 1.9. Also, in data set [1], the fold induction at 50 µM was determined as 7.14 ± 0.34 and the fold induction at 100 µM came to 10.07 ± 0.05. Besides, the IC50 at 24 h in data set [2] is > 300 µM.

As to `CCCC(=O)C=C1NCC2c3ccccc3CCN2C1=O` (centres unmarked) [Compound 2a, 3-(2-oxopentylidene)-1,2,3,6,7,11b-hexahydro-4H-pyrazino[2,1-a]isoquinolin-4-one], the melting point lay in the range of 158 to 160 °C. In data set [1], the fold induction at 0.1 µM is 2.38 ± 0.11, the fold induction at 1 µM was 2.28 ± 0.78, the fold induction at 5 µM is 2.55 ± 0.31 and the fold induction at 10 µM came out at 3.09 ± 1.09. For the same compound, in data set [1], the fold induction at 50 µM was 6.74 ± 0.67 and the fold induction at 100 µM was 19.6 ± 0.47. In addition, the 50% inhibitory concentration (IC50) at 24 h in data set [2] is > 300 µM.

Regarding `O=C(C=C1NCC2c3ccccc3CCN2C1=O)C1CC1` (centres unmarked) [Compound 2b, 3-(2-cyclopropyl-2-oxoethylidene)-1,2,3,6,7,11b-hexahydro-4H-pyrazino[2,1-a]isoquinolin-4-one], the melting point was 173 to 175 °C. For the same compound, in data set [1], the fold induction at 0.1 µM worked out at 3.71 ± 1.41, the fold induction at 1 µM was 3.57 ± 1.08, the fold induction at 5 µM turned out to be 4.85 ± 0.82 and the fold induction at 10 µM was determined as 6.58 ± 2. In addition, in data set [1], the fold induction at 50 µM was 8.24 ± 0.62 and the fold induction at 100 µM came out at 12.9 ± 1.73. Further, the IC50 at 24 h in data set [2] was > 300 µM.

Turning to `O=C(C=C1NCC2c3ccccc3CCN2C1=O)C1CCCC1` (centres unmarked) [Compound 2d, 3-(2-cyclopentyl-2-oxoethylidene)-1,2,3,6,7,11b-hexahydro-4H-pyrazino[2,1-a]isoquinolin-4-one], the melting point was in the range of 185 to 187 °C. Also, in data set [1], the fold induction at 0.1 µM is 1.06 ± 0.09, the fold induction at 1 µM is 3.19 ± 0.52, the fold induction at 5 µM was 4.06 ± 0.3 and the fold induction at 10 µM was 7.38 ± 0.31. Also, in data set [1], the fold induction at 50 µM is 5.22 ± 1.28 and the fold induction at 100 µM was determined as 5.83 ± 0.38. The compound also came in with a half-inhibitory concentration (IC50) at 24 h in data set [2] of 161 µM.

In turn, `O=C(C=C1NCC2c3ccccc3CCN2C1=O)C1CCCCC1` (centres unmarked) [Compound 2e, 3-(2-cyclohexyl-2-oxoethylidene)-1,2,3,6,7,11b-hexahydro-4H-pyrazino[2,1-a]isoquinolin-4-one] yielded a melting point of 203 to 205 °C. Also, in data set [1], the fold induction at 0.1 µM amounted to 1.92 ± 0.82, the fold induction at 1 µM came to 2.17 ± 1.05, the fold induction at 5 µM came out at 3.03 ± 0.68 and the fold induction at 10 µM turned out to be 3.49 ± 0.64. In data set [1], the fold induction at 50 µM stood at 3.92 ± 0.53 and the fold induction at 100 µM came out at 8.31 ± 0.25. Besides, the IC50 at 24 h in data set [2] is > 300 µM.

As to `O=C(C=C1NCC2c3ccccc3CCN2C1=O)C1=CCCCC1` (centres unmarked) [Compound 2f, 3-(2-(cyclohex-1-en-1-yl)-2-oxoethylidene)-1,2,3,6,7,11b-hexahydro-4H-pyrazino[2,1-a]isoquinolin-4-one], the melting point lay within 180 to 182 °C. Also, in data set [1], the fold induction at 0.1 µM is 3.27 ± 1.59, the fold induction at 1 µM is 2.1 ± 0.59, the fold induction at 5 µM was 5.46 ± 1.83 and the fold induction at 10 µM stood at 8.45 ± 1.05. For the same compound, in data set [1], the fold induction at 50 µM is 3.34 ± 1.05 and the fold induction at 100 µM was 3.07 ± 0.43. The compound also showed a half-maximal inhibitory concentration (IC50) at 24 h in data set [2] of 171 µM.

With `O=C(C=C1NCC2c3ccccc3CCN2C1=O)c1c[nH]c2ccccc12` (centres unmarked) [Compound 2g, 3-(2-(1H-indol-3-yl)-2-oxoethylidene)-1,2,3,6,7,11b-hexahydro-4H-pyrazino[2,1-a]isoquinolin-4-one], the melting point fell in the range of 270 to 272 °C. In data set [1], the fold induction at 0.1 µM stood at 1.27 ± 0.52, the fold induction at 1 µM came to 2.31 ± 0.24, the fold induction at 5 µM worked out at 4.68 ± 0.29 and the fold induction at 10 µM came out at 5.84 ± 0.07. Moreover, in data set [1], the fold induction at 50 µM was found to be 14.5 ± 0.36 and the fold induction at 100 µM came to 9.69 ± 0.8. In addition, the half-maximal inhibitory concentration (IC50) at 24 h in data set [2] is > 300 µM.

In the case of `O=C(C=C1NCC2c3ccccc3CCN2C1=O)c1cnc2ccccc2c1` (centres unmarked) [Compound 2h, 3-(2-oxo-2-(quinolin-3-yl)ethylidene)-1,2,3,6,7,11b-hexahydro-4H-pyrazino[2,1-a]isoquinolin-4-one], the melting point was 245 to 247 °C. For the same compound, in data set [1], the fold induction at 0.1 µM amounted to 2.06 ± 0.98, the fold induction at 1 µM was determined as 3.4 ± 0.02, the fold induction at 5 µM was 3.62 ± 0.29 and the fold induction at 10 µM is 4.59 ± 0.14. For the same compound, in data set [1], the fold induction at 50 µM worked out at 4.38 ± 1.94 and the fold induction at 100 µM is 4.98 ± 0.53. In data set [2], this compound displayed an IC50 at 24 h of 92.4 µM.

Turning to `O=C(C=C1NCC2c3ccccc3CCN2C1=O)c1ccc(N2CCOCC2)cc1` (centres unmarked) [Compound 2i, 3-(2-(4-morpholinophenyl)-2-oxoethylidene)-1,2,3,6,7,11b-hexahydro-4H-pyrazino[2,1-a]isoquinolin-4-one], the melting point lay within 235 to 237 °C. In addition, in data set [1], the fold induction at 0.1 µM amounted to 1.71 ± 0.71, the fold induction at 1 µM was 1.88 ± 1.36, the fold induction at 5 µM was determined as 1.37 ± 0.19 and the fold induction at 10 µM worked out at 1.66 ± 0.53. In data set [1], the fold induction at 50 µM was determined as 1.16 ± 0.63 and the fold induction at 100 µM was 1.42 ± 0.31. Besides, half-maximal inhibition in data set [2] (IC50 at 24 h) was put at 237 µM.

Compound `O=C(C=C1NCC2CCCCN2C1=O)c1cccc(Cl)c1` (centres unmarked) [Compound 3c, 3-(2-(3-chlorophenyl)-2-oxoethylidene)octahydro-4H-pyrido[1,2-a]pyrazin-4-one] registered a melting point of 157 to 159 °C. For the same compound, in data set [1], the fold induction at 0.1 µM stood at 1.85 ± 0.21, the fold induction at 1 µM turned out to be 8.41 ± 0.04, the fold induction at 5 µM was found to be 10.2 ± 3.44 and the fold induction at 10 µM was determined as 11.4 ± 1.12. Also, in data set [1], the fold induction at 50 µM worked out at 1.13 ± 1.03 and the fold induction at 100 µM was 1.33 ± 0.19. The IC50 at 24 h in data set [2] was found to be 174 µM.

On to `COC(=O)/C=C/C(=O)OC` [DMF, Dimethyl fumarate, reference compound], for which, in data set [1], the fold induction at 0.1 µM was 1.04 ± 0.21, the fold induction at 1 µM was determined as 1.1 ± 0.11, the fold induction at 5 µM worked out at 1.4 ± 0.21 and the fold induction at 10 µM stood at 2.06 ± 0.25. Also, in data set [1], the fold induction at 50 µM is 3.34 ± 0.52 and the fold induction at 100 µM came to 5.31 ± 0.24.
